Laboratory results from the NIST ThermoML archive (doi:10.1016/j.jct.2017.07.008).
“And” between values parts separate entries of the source, which are not always exact repeats. Equal entries are not always repeated.

Settings: for surface tension liquid-gas: Drop volume; for viscosity / speed of sound / mass density: Liquid; for viscosity: Capillary tube (Ostwald / Ubbelohde) method; for speed of sound: Frequency=3 MHz, Single path-length method; for mass density: Vibrating tube method

OCc1cccs1 [2-thiophenemethanol]
Settings | surface tension liquid-gas [mN/m]
283.15 K | 45.2
285.65 K | 44.93
288.15 K | 44.61
290.65 K | 44.39
293.15 K | 44.13
295.65 K | 43.83
298.15 K | 43.56
300.65 K | 43.29
303.15 K | 43.04
305.65 K | 42.78
308.15 K | 42.54
310.65 K | 42.27
313.15 K | 41.96

Settings | mass density | speed of sound [m/s] | viscosity [mPa·s]
283.15 K, 100 kPa | 1215.5 kg/m3 | 1545.7 | 13.16
283.15 K, 2000 kPa | 1216.47 kg/m3 | – | –
283.15 K, 5000 kPa | 1217.99 kg/m3 | – | –
283.15 K, 7000 kPa | 1218.98 kg/m3 | – | –
283.15 K, 10000 kPa | 1220.46 kg/m3 | – | –
283.15 K, 15000 kPa | 1222.87 kg/m3 | – | –
283.15 K, 20000 kPa | 1225.22 kg/m3 | – | –
283.15 K, 25000 kPa | 1227.52 kg/m3 | – | –
283.15 K, 30000 kPa | 1229.77 kg/m3 | – | –
283.15 K, 35000 kPa | 1231.96 kg/m3 | – | –
283.15 K, 40000 kPa | 1234.11 kg/m3 | – | –
283.15 K, 45000 kPa | 1236.21 kg/m3 | – | –
283.15 K, 50000 kPa | 1238.27 kg/m3 | – | –
283.15 K, 55000 kPa | 1240.29 kg/m3 | – | –
283.15 K, 60000 kPa | 1242.27 kg/m3 | – | –
283.15 K, 65000 kPa | 1244.21 kg/m3 | – | –
285.65 K, 100 kPa | 1213.3 kg/m3 | 1538.2 | 11.81
288.15 K, 100 kPa | 1211.11 kg/m3 and 1211.08 kg/m3 | 1530.8 | 10.6
288.15 K, 2000 kPa | 1212.1 kg/m3 | – | –
288.15 K, 5000 kPa | 1213.64 kg/m3 | – | –
288.15 K, 7000 kPa | 1214.66 kg/m3 | – | –
288.15 K, 10000 kPa | 1216.16 kg/m3 | – | –
288.15 K, 15000 kPa | 1218.62 kg/m3 | – | –
288.15 K, 20000 kPa | 1221.01 kg/m3 | – | –
288.15 K, 25000 kPa | 1223.35 kg/m3 | – | –
288.15 K, 30000 kPa | 1225.64 kg/m3 | – | –
288.15 K, 35000 kPa | 1227.87 kg/m3 | – | –
288.15 K, 40000 kPa | 1230.06 kg/m3 | – | –
288.15 K, 45000 kPa | 1232.19 kg/m3 | – | –
288.15 K, 50000 kPa | 1234.29 kg/m3 | – | –
288.15 K, 55000 kPa | 1236.34 kg/m3 | – | –
288.15 K, 60000 kPa | 1238.35 kg/m3 | – | –
288.15 K, 65000 kPa | 1240.32 kg/m3 | – | –
290.65 K, 100 kPa | 1208.87 kg/m3 | 1523.4 | 9.578
293.15 K, 100 kPa | 1206.69 kg/m3 and 1206.66 kg/m3 | 1516 | 8.703
293.15 K, 2000 kPa | 1207.7 kg/m3 | – | –
293.15 K, 5000 kPa | 1209.28 kg/m3 | – | –
293.15 K, 7000 kPa | 1210.32 kg/m3 | – | –
293.15 K, 10000 kPa | 1211.85 kg/m3 | – | –
293.15 K, 15000 kPa | 1214.36 kg/m3 | – | –
293.15 K, 20000 kPa | 1216.8 kg/m3 | – | –
293.15 K, 25000 kPa | 1219.18 kg/m3 | – | –
293.15 K, 30000 kPa | 1221.5 kg/m3 | – | –
293.15 K, 35000 kPa | 1223.78 kg/m3 | – | –
293.15 K, 40000 kPa | 1226 kg/m3 | – | –
293.15 K, 45000 kPa | 1228.17 kg/m3 | – | –
293.15 K, 50000 kPa | 1230.29 kg/m3 | – | –
293.15 K, 55000 kPa | 1232.38 kg/m3 | – | –
293.15 K, 60000 kPa | 1234.42 kg/m3 | – | –
293.15 K, 65000 kPa | 1236.41 kg/m3 | – | –
295.65 K, 100 kPa | 1204.45 kg/m3 | 1508.6 | 7.913
298.15 K, 100 kPa | 1202.27 kg/m3 and 1202.23 kg/m3 | 1501.2 | 7.23
298.15 K, 2000 kPa | 1203.3 kg/m3 | – | –
298.15 K, 5000 kPa | 1204.91 kg/m3 | – | –
298.15 K, 7000 kPa | 1205.97 kg/m3 | – | –
298.15 K, 10000 kPa | 1207.53 kg/m3 | – | –
298.15 K, 15000 kPa | 1210.08 kg/m3 | – | –
298.15 K, 20000 kPa | 1212.57 kg/m3 | – | –
298.15 K, 25000 kPa | 1215 kg/m3 | – | –
298.15 K, 30000 kPa | 1217.36 kg/m3 | – | –
298.15 K, 35000 kPa | 1219.67 kg/m3 | – | –
298.15 K, 40000 kPa | 1221.93 kg/m3 | – | –
298.15 K, 45000 kPa | 1224.14 kg/m3 | – | –
298.15 K, 50000 kPa | 1226.3 kg/m3 | – | –
298.15 K, 55000 kPa | 1228.41 kg/m3 | – | –
298.15 K, 60000 kPa | 1230.48 kg/m3 | – | –
298.15 K, 65000 kPa | 1232.51 kg/m3 | – | –
300.65 K, 100 kPa | 1200.01 kg/m3 | 1493.9 | 6.607
303.15 K, 100 kPa | 1197.82 kg/m3 and 1197.79 kg/m3 | 1486.6 | 6.079
303.15 K, 2000 kPa | 1198.88 kg/m3 | – | –
303.15 K, 5000 kPa | 1200.52 kg/m3 | – | –
303.15 K, 7000 kPa | 1201.6 kg/m3 | – | –
303.15 K, 10000 kPa | 1203.2 kg/m3 | – | –
303.15 K, 15000 kPa | 1205.8 kg/m3 | – | –
303.15 K, 20000 kPa | 1208.33 kg/m3 | – | –
303.15 K, 25000 kPa | 1210.8 kg/m3 | – | –
303.15 K, 30000 kPa | 1213.21 kg/m3 | – | –
303.15 K, 35000 kPa | 1215.57 kg/m3 | – | –
303.15 K, 40000 kPa | 1217.86 kg/m3 | – | –
303.15 K, 45000 kPa | 1220.11 kg/m3 | – | –
303.15 K, 50000 kPa | 1222.3 kg/m3 | – | –
303.15 K, 55000 kPa | 1224.45 kg/m3 | – | –
303.15 K, 60000 kPa | 1226.55 kg/m3 | – | –
303.15 K, 65000 kPa | 1228.61 kg/m3 | – | –
305.65 K, 100 kPa | 1195.57 kg/m3 | 1479.3 | 5.609
308.15 K, 100 kPa | 1193.36 kg/m3 and 1193.34 kg/m3 | 1472 | 5.18
308.15 K, 2000 kPa | 1194.44 kg/m3 | – | –
308.15 K, 5000 kPa | 1196.12 kg/m3 | – | –
308.15 K, 7000 kPa | 1197.22 kg/m3 | – | –
308.15 K, 10000 kPa | 1198.85 kg/m3 | – | –
308.15 K, 15000 kPa | 1201.5 kg/m3 | – | –
308.15 K, 20000 kPa | 1204.09 kg/m3 | – | –
308.15 K, 25000 kPa | 1206.61 kg/m3 | – | –
308.15 K, 30000 kPa | 1209.06 kg/m3 | – | –
308.15 K, 35000 kPa | 1211.45 kg/m3 | – | –
308.15 K, 40000 kPa | 1213.79 kg/m3 | – | –
308.15 K, 45000 kPa | 1216.07 kg/m3 | – | –
308.15 K, 50000 kPa | 1218.3 kg/m3 | – | –
308.15 K, 55000 kPa | 1220.48 kg/m3 | – | –
308.15 K, 60000 kPa | 1222.62 kg/m3 | – | –
308.15 K, 65000 kPa | 1224.71 kg/m3 | – | –
310.65 K, 100 kPa | 1191.11 kg/m3 | 1464.8 | 4.795
313.15 K, 100 kPa | 1188.89 kg/m3 and 1188.87 kg/m3 | 1457.6 | 4.455
313.15 K, 2000 kPa | 1189.99 kg/m3 | – | –
313.15 K, 5000 kPa | 1191.7 kg/m3 | – | –
313.15 K, 7000 kPa | 1192.83 kg/m3 | – | –
313.15 K, 10000 kPa | 1194.49 kg/m3 | – | –
313.15 K, 15000 kPa | 1197.2 kg/m3 | – | –
313.15 K, 20000 kPa | 1199.83 kg/m3 | – | –
313.15 K, 25000 kPa | 1202.4 kg/m3 | – | –
313.15 K, 30000 kPa | 1204.9 kg/m3 | – | –
313.15 K, 35000 kPa | 1207.33 kg/m3 | – | –
313.15 K, 40000 kPa | 1209.71 kg/m3 | – | –
313.15 K, 45000 kPa | 1212.03 kg/m3 | – | –
313.15 K, 50000 kPa | 1214.3 kg/m3 | – | –
